Paper PMC8373063 (2021)

Tests used:
[1] = test system: DNA Seq6 (DNA, single strand) TGAAGGAAGGT; test: ITC; conditions: 100 mM NaCl; 30 mM MES pH 6.1, 5% DMSO, 25 °C
[2] = test system: DNA Seq9 (DNA, single strand) TTAAGGAAGTT; test: fluorescence polarization; conditions: 100 mM NaCl, 1 mM MgCl2; 20 mM HEPES, 25 °C; 0.5 μM SMN-C2
[3] = test system: S11 (DNA, single strand) AAAAGATGGAAGGTGCTC; test: fluorescence polarization; conditions: 100 mM NaCl, 1 mM MgCl2; 20 mM HEPES, 25 °C, 0.5 μM compound
[4] = test system: S14 (DNA, single strand) AAAAGAAGGATGGTGCTC; test: fluorescence polarization; conditions: 100 mM NaCl, 1 mM MgCl2; 20 mM HEPES, 25 °C, 0.5 μM compound
[5] = test system: DNA Seq17 (DNA, single strand) TGAAGGAAGAT; test: fluorescence polarization; conditions: 100 mM NaCl, 1 mM MgCl2; 20 mM HEPES, 25 °C; 0.5 μM SMN-C2
[6] = test system: S2 (DNA, single strand) AAAAGAAGGAAGGAGCAC; test: fluorescence polarization; conditions: 100 mM NaCl, 1 mM MgCl2; 20 mM HEPES, 25 °C, 0.5 μM compound
[7] = test system: DNA Seq22 (DNA, other) GTGCCAGTTCGCTGGCACTGAAGGAAGGT; test: fluorescence polarization; conditions: 100 mM NaCl, 1 mM MgCl2; 20 mM HEPES, 25 °C, 0.5 μM compound
[8] = test system: DNA Seq12 (DNA, single strand) TGAAAGAAGGT; test: fluorescence polarization; conditions: 100 mM NaCl, 1 mM MgCl2; 20 mM HEPES, 25 °C; 0.5 μM SMN-C2
[9] = test system: S15 (DNA, single strand) AAAAGAAGGAATGTGCTC; test: fluorescence polarization; conditions: 100 mM NaCl, 1 mM MgCl2; 20 mM HEPES, 25 °C, 0.5 μM compound
[10] = test system: DNA Seq2 (DNA, single strand) GAAGGAAGG; test: fluorescence polarization; conditions: 100 mM NaCl, 1 mM MgCl2; 20 mM HEPES, 25 °C; 0.5 μM SMN-C2
[11] = test system: S12 (DNA, single strand) AAAAGAAGTAAGGTGCTC; test: fluorescence polarization; conditions: 100 mM NaCl, 1 mM MgCl2; 20 mM HEPES, 25 °C, 0.5 μM compound
[12] = test system: DNA Seq11 (DNA, single strand) TGGAGGAAGGT; test: fluorescence polarization; conditions: 100 mM NaCl, 1 mM MgCl2; 20 mM HEPES, 25 °C; 0.5 μM SMN-C2
[13] = test system: DNA S18 (DNA, single strand) AAAAGGAGGAAGGTGCTC; test: fluorescence polarization; conditions: 100 mM NaCl, 1 mM MgCl2; 20 mM HEPES, 25 °C; 0.5 μM SMN-C2
[14] = test system: RNA Seq9 (RNA, single strand) UUAAGGAAGUU; test: fluorescence polarization; conditions: 100 mM NaCl; 20 mM HEPES, 25 °C; 0.5 μM SMN-C2
[15] = test system: DNA S9 (DNA, single strand) AAAATAAGGAAGGTGCTC; test: fluorescence polarization; conditions: 100 mM NaCl, 1 mM MgCl2; 20 mM HEPES, 25 °C; 0.5 μM SMN-C2
[16] = test system: S3 (DNA, single strand) AAAAGAAGGAAGGTGATA; test: fluorescence polarization; conditions: 100 mM NaCl, 1 mM MgCl2; 20 mM HEPES, 25 °C, 0.5 μM compound
[17] = test system: S23 (DNA, single strand) AAAAGAAGAAAGGTGCTC; test: fluorescence polarization; conditions: 100 mM NaCl, 1 mM MgCl2; 20 mM HEPES, 25 °C, 0.5 μM compound
[18] = test system: DNA S19 (DNA, single strand) AAAAGAGGGAAGGTGCTC; test: fluorescence polarization; conditions: 100 mM NaCl, 1 mM MgCl2; 20 mM HEPES, 25 °C; 0.5 μM SMN-C2
[19] = test system: DNA Seq20 (DNA, hairpin) TGAAGGAAGGTTTCGACCTTCCTTCA; test: fluorescence polarization; conditions: 100 mM NaCl, 1 mM MgCl2; 20 mM HEPES, 25 °C, 0.5 μM compound
[20] = test system: DNA Seq15 (DNA, single strand) TGAAGGATGGT; test: fluorescence polarization; conditions: 100 mM NaCl, 1 mM MgCl2; 20 mM HEPES, 25 °C; 0.5 μM SMN-C2
[21] = test system: DNA Seq16 (DNA, single strand) TGAAGGAAAGT; test: fluorescence polarization; conditions: 100 mM NaCl, 1 mM MgCl2; 20 mM HEPES, 25 °C; 0.5 μM SMN-C2
[22] = test system: DNA Seq23 (DNA, mismatch bulge abasic) GCCAGGCGCACTTTCGAGTGCGCGAAGGAAGGCTGGC; test: fluorescence polarization; conditions: 100 mM NaCl, 1 mM MgCl2; 20 mM HEPES, 25 °C, 0.5 μM compound
[23] = test system: RNA Seq16 (RNA, single strand) UGAAGGAAAGU; test: fluorescence polarization; conditions: 100 mM NaCl; 20 mM HEPES, 25 °C; 0.5 μM SMN-C2
[24] = test system: RNA Seq7 (RNA, single strand) UUAAGGAAGGU; test: fluorescence polarization; conditions: 100 mM NaCl; 20 mM HEPES, 25 °C; 0.5 μM SMN-C2

Work on `CCN1CCN(c2ccc3cc(-c4cn5cc(C)nc(C)c5n4)c(=O)oc3c2)C[C@@H]1C` yielded a Kd [1] of 4.8 µM, a Kd [2] greater than 100 µM and a Kd [3] of 26.3 ± 1.2 µM. For the same compound, the Kd [4] was 19.5 ± 2.3 µM, the Kd [5] was 56.4 ± 10.4 µM and the Kd [6] was 20.2 ± 1.7 µM. It also gave a Kd [7] of 10.0 ± 0.5 µM, a Kd [8] of 17.6 ± 3.4 µM and a Kd [9] of 31.4 ± 4 µM. For the same compound, the Kd [10] was 34.3 ± 9.6 µM, the Kd [11] was 37.4 ± 6.7 µM and the Kd [12] was 57.3 ± 20.0 µM. For the same compound, the Kd [13] was greater than 50 µM, the Kd [14] was greater than 100 µM and the Kd [15] was 56.2 ± 13.9 µM. The Kd [16] was 21.7 ± 2.7 µM, the Kd [17] was > > 50 µM and the Kd [18] was 21.0 ± 1.1 µM. For the same compound, the Kd [19] was 52.0 ± 25.7 µM, the Kd [20] was 41.1 ± 4.4 µM and the Kd [21] was 27.4 ± 6.0 µM. It also gave a Kd [22] of 1.1 ± 0.2 µM, a Kd [23] of 77.0 ± 26.0 µM and a Kd [24] of 42.3 ± 13.3 µM.
